Measurements as given in patent publication US12612360B2 (Sanofi, priority 2020, dated 2026).

Target: T1, ERα (Homo sapiens, UniProt P03372)
T1 construct: host or cells: MCF7
T1 sequence (P03372 1-595): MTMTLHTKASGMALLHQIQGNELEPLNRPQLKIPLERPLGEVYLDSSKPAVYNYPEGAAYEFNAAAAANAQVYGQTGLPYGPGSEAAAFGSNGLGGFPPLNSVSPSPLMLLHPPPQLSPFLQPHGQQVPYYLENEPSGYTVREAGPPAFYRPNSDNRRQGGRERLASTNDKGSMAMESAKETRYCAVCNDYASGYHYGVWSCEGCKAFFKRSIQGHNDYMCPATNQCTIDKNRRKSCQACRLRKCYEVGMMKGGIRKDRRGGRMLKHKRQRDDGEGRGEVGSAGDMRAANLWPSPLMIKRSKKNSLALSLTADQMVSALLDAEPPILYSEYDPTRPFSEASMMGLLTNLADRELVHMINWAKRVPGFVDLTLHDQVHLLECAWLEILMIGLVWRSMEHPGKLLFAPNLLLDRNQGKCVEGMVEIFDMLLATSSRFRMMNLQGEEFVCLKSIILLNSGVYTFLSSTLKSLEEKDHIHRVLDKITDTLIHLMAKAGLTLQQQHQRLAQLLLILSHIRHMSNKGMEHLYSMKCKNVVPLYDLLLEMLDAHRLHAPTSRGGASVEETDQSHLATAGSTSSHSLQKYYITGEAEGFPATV
Experiment: Estrogen receptor degradation activity: breast cancer cell ERα in cell western assay (MCF7 cells)
Assay type: cell-based
Settings: for % Degradation At 0.3 μM: 4 hours, relative to fulvestrant 0.1 μM positive control; for DC50: 4 hours post compound addition, concentration which degrades 50% of the estrogen receptor, read-out: Degradation IC50
Method in brief: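 In-cell western readout: ERα immunofluorescence (Alexa 488) normalised to DNA signal (Syto-64) after formalin fixation. Compounds dosed for 4 h on MCF7 cells in stripped-serum, phenol-red-free medium over nine 1:5 steps, 0.3 to […] final; fulvestrant 0.1 μM control. IC50 in nM for 50% ERα degradation.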

| Structure (SMILES) | % Degradation At 0.3 μM | DC50 |
| --- | --- | --- |
| O=C(O)c1ccc2c(c1)CCCC(c1ccc(Cl)cc1)=C2c1ccc(C=C2CN(CCCF)C2)cc1 [Example 181, 8-(4-chlorophenyl)-9-(4-((1-(3-fluoropropyl)azetidin-3-ylidene)methyl)phenyl)-6,7-dihydro-5H-benzo[7]annulene-3-carboxylic acid] | 91% | 500 pM |
| Cl.O=C(O)c1ccc2c(c1)CCCC(c1ccc(Cl)cc1Cl)=C2c1ccc(C=C2CN(CCCF)C2)cc1F [Example 101, 8-(2,4-dichlorophenyl)-9-(2-fluoro-4-((1-(3-fluoropropyl)azetidin-3-ylidene)methyl)phenyl)-6,7-dihydro-5H-benzo[7]annulene-3-carboxylic acid hydrochloride] | 93% | 400 pM |
| Cc1c(Cl)ccc(C2=C(c3ccc(C=C4CN(CCCF)C4)cc3)c3ccc(C(=O)O)cc3CCC2)c1C [Example 82, 8-(4-chloro-2,3-dimethylphenyl)-9-(4-((1-(3-fluoropropyl)azetidin-3-ylidene)methyl)phenyl)-6,7-dihydro-5H-benzo[7]annulene-3-carboxylic acid] | 90% | 500 pM |
| O=C(O)c1ccc2c(c1)CCCC(C1CCOCC1)=C2c1ccc(C=C2CN(CCCF)C2)cc1 [Example 60, 9-(4-((1-(3-Fluoropropyl)azetidin-3-ylidene)methyl)phenyl)-8-(tetrahydro-2H-pyran-4-yl)-6,7-dihydro-5H-benzo[7]annulene-3-carboxylic acid] | 91% | 2300 pM |
| O=C(O)c1ccc2c(c1)CCCC(c1cccc(Cl)c1C(F)(F)F)=C2c1ccc(C=C2CN(CCCF)C2)cc1 [Example 23, 8-(3-chloro-2-(trifluoromethyl)phenyl)-9-(4-((1-(3-fluoropropyl)azetidin-3-ylidene)methyl)phenyl)-6,7-dihydro-5H-benzo[7]annulene-3-carboxylic acid] | 96% | 400 pM |
| O=C(O)c1ccc2c(c1)CCCC(c1ccc(F)c3c1CCC3)=C2c1ccc(C=C2CN(CCC(F)F)C2)cc1 [Example 165, 9-(4-((1-(3,3-difluoropropyl)azetidin-3-ylidene)methyl)phenyl)-8-(7-fluoro-2,3-dihydro-1H-inden-4-yl)-6,7-dihydro-5H-benzo[7]annulene-3-carboxylic acid] | 96% | 1900 pM |
| O=C(O)c1ccc2c(c1)CCCC(c1cccc(Cl)c1C(F)(F)F)=C2c1ccc(C=C2CN(CCC(F)F)C2)cc1 [Example 13, 8-(3-chloro-2-(trifluoromethyl)phenyl)-9-(4-((1-(3,3-difluoropropyl)azetidin-3-ylidene)methyl)phenyl)-6,7-dihydro-5H-benzo[7]annulene-3-carboxylic acid] | 89% | 500 pM |
| Cc1ccc(C2=C(c3ccc(C=C4CN(CCCF)C4)c(F)c3)c3ccc(C(=O)O)cc3CCC2)c(F)c1 [Example 69, 9-(3-fluoro-4-((1-(3-fluoropropyl)azetidin-3-ylidene)methyl)phenyl)-8-(2-fluoro-4-methylphenyl)-6,7-dihydro-5H-benzo[7]annulene-3-carboxylic acid] | 94% | 500 pM |
| Cc1cc(Cl)cc(C)c1C1=C(c2ccc(C=C3CN(CCCF)C3)cc2)c2ccc(C(=O)O)cc2CCC1 [Example 83, 8-(4-chloro-2,6-dimethylphenyl)-9-(4-((1-(3-fluoropropyl)azetidin-3-ylidene)methyl)phenyl)-6,7-dihydro-5H-benzo[7]annulene-3-carboxylic acid] | 93% | 400 pM |
| Cc1cccc(C2=C(c3ccc(C=C4CN(CCC(F)F)C4)cc3)c3ccc(C(=O)O)cc3CCC2)c1Cl [Example 131, 8-(2-chloro-3-methylphenyl)-9-(4-((1-(3,3-difluoropropyl)azetidin-3-ylidene)methyl)phenyl)-6,7-dihydro-5H-benzo[7]annulene-3-carboxylic acid] | 95% | 1100 pM |
| CC1CCc2cc(C(=O)O)ccc2C(c2ccc(C=C3CN(CCCF)C3)cc2)=C1c1ccc(Cl)cc1 (single isomer, unassigned) [Example 179, 8-(4-chlorophenyl)-9-(4-((1-(3-fluoropropyl)azetidin-3-ylidene)methyl)phenyl)-7-methyl-6,7-dihydro-5H-benzo[7]annulene-3-carboxylic acid] | 91% | 1400 pM |
| O=C(O)c1ccc2c(c1)CCCC(c1cc(C(F)(F)F)ccc1F)=C2c1ccc(C=C2CN(CCCF)C2)cc1 [Example 121, 8-(2-fluoro-5-(trifluoromethyl)phenyl)-9-(4-((1-(3-fluoropropyl)azetidin-3-ylidene)methyl)phenyl)-6,7-dihydro-5H-benzo[7]annulene-3-carboxylic acid] | 94% | 700 pM |

Stronger by DC50, values ahead:

| % Degradation At 0.3 μM | DC50 | Structure (SMILES) |
| --- | --- | --- |
| 91% | 300 pM | O=C(O)c1ccc2c(c1)CCCC(c1cccc(Cl)c1F)=C2c1ccc(C=C2CN(CCCF)C2)cc1 [Example 47, 8-(3-chloro-2-fluorophenyl)-9-(4-((1-(3-fluoropropyl)azetidin-3-ylidene)methyl)phenyl)-6,7-dihydro-5H-benzo[7]annulene-3-carboxylic acid] |
| 92% | 200 pM | CCc1ccccc1C1=C(c2ccc(C=C3CN(CCCF)C3)cc2)c2ccc(C(=O)O)cc2CCC1 [Example 86, 8-(2-ethylphenyl)-9-(4-((1-(3-fluoropropyl)azetidin-3-ylidene)methyl)phenyl)-6,7-dihydro-5H-benzo[7]annulene-3-carboxylic acid] |
| 91% | 200 pM | Cc1ccc(F)cc1C1=C(c2ccc(C=C3CN(CCCF)C3)cc2)c2ccc(C(=O)O)cc2CCC1 [Example 38, 8-(5-fluoro-2-methylphenyl)-9-(4-((1-(3-fluoropropyl)azetidin-3-ylidene)methyl)phenyl)-6,7-dihydro-5H-benzo[7]annulene-3-carboxylic acid] |
| 90% | 300 pM | O=C(O)c1ccc2c(c1)CCCC(CC1CCC1)=C2c1ccc(C=C2CN(CCCF)C2)cc1 [Example 169, 8-(cyclobutylmethyl)-9-(4-((1-(3-fluoropropyl)azetidin-3-ylidene)methyl)phenyl)-6,7-dihydro-5H-benzo[7]annulene-3-carboxylic acid] |
| 93% | 300 pM | O=C(O)c1ccc2c(c1)CCCC(C1CC13CCC3)=C2c1ccc(C=C2CN(CCCF)C2)cc1 (stereo not shown) [Example 176, 9-(4-((1-(3-fluoropropyl)azetidin-3-ylidene)methyl)phenyl)-8-(spiro[2.3]hexan-1-yl)-6,7-dihydro-5H-benzo[7]annulene-3-carboxylic acid] |
| 92% | 300 pM | O=C(O)c1ccc2c(c1)CCCC(c1c(F)cc(F)cc1F)=C2c1ccc(C=C2CN(CCCF)C2)cc1 [Example 33, 9-(4-((1-(3-fluoropropyl)azetidin-3-ylidene)methyl)phenyl)-8-(2,4,6-trifluorophenyl)-6,7-dihydro-5H-benzo[7]annulene-3-carboxylic acid] |
| 90% | 300 pM | O=C(O)c1ccc2c(c1)CCCC(c1cccc(C(F)(F)F)c1Cl)=C2c1ccc(C=C2CN(CCCF)C2)cc1 [Example 147, 8-(2-chloro-3-(trifluoromethyl)phenyl)-9-(4-((1-(3-fluoropropyl)azetidin-3-ylidene)methyl)phenyl)-6,7-dihydro-5H-benzo[7]annulene-3-carboxylic acid] |
| 92% | 200 pM | Cl.O=C(O)c1ccc2c(c1)CCCC(c1ccc(Cl)cc1Cl)=C2c1ccc(C=C2CN(CCCF)C2)c(F)c1 [Example 103, 8-(2,4-dichlorophenyl)-9-(3-fluoro-4-((1-(3-fluoropropyl)azetidin-3-ylidene)methyl)phenyl)-6,7-dihydro-5H-benzo[7]annulene-3-carboxylic acid hydrochloride] |
| 96% | 200 pM | Cc1cccc(C2=C(c3ccc(C=C4CN(CCCF)C4)cc3)c3ccc(C(=O)O)cc3CCC2)c1C [Example 94, 8-(2,3-dimethylphenyl)-9-(4-((1-(3-fluoropropyl)azetidin-3-ylidene)methyl)phenyl)-6,7-dihydro-5H-benzo[7]annulene-3-carboxylic acid] |
| 96% | 300 pM | Cc1c(C2=C(c3ccc(C=C4CN(CCCF)C4)cc3)c3ccc(C(=O)O)cc3CCC2)ccc(F)c1F [Example 29, 8-(3,4-difluoro-2-methylphenyl)-9-(4-((1-(3-fluoropropyl)azetidin-3-ylidene)methyl)phenyl)-6,7-dihydro-5H-benzo[7]annulene-3-carboxylic acid] |
| 93% | 300 pM | Cc1cc(C2=C(c3ccc(Cl)cc3Cl)CCCc3cc(C(=O)O)ccc32)ccc1C=C1CN(CCCF)C1 [Example 64, 8-(2,4-dichlorophenyl)-9-(4-((1-(3-fluoropropyl)azetidin-3-ylidene)methyl)-3-methylphenyl)-6,7-dihydro-5H-benzo[7]annulene-3-carboxylic acid] |
